Experimental data reported in patent US12692254B2, “Benzimidazole inhibitors of PAD enzymes” (BRISTOL-MYERS SQUIBB COMPANY, priority 2018, dated 2026).

Target: human PAD4 (hPAD4) (Homo sapiens, UniProt Q9UM07)
Test: RFMS human PAD4 functional assay (rapid-fire mass spectrum)
Assay type: biochemical
Conditions: 5 nM hPAD4 enzyme, 250 μM BAEE, 50 μM Calcium; 30 min preincubation, 90 min reaction at 37° C.
Summary of the method: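 PAD4 (10 nM) preincubated 30 min with compound (top final 50 μM), then BAEE substrate added in pH 7.5 HEPES buffer with DTT, 50 μM calcium, TPEN; 90 min at 37° C. After TCA quench, citrulline derivatized with phenyl glyoxal (4 mM final, 30 min, 37° C) and quantified by RapidFire MS against internal standard.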

human PAD4 (hPAD4), sequence (Q9UM07 whole entry): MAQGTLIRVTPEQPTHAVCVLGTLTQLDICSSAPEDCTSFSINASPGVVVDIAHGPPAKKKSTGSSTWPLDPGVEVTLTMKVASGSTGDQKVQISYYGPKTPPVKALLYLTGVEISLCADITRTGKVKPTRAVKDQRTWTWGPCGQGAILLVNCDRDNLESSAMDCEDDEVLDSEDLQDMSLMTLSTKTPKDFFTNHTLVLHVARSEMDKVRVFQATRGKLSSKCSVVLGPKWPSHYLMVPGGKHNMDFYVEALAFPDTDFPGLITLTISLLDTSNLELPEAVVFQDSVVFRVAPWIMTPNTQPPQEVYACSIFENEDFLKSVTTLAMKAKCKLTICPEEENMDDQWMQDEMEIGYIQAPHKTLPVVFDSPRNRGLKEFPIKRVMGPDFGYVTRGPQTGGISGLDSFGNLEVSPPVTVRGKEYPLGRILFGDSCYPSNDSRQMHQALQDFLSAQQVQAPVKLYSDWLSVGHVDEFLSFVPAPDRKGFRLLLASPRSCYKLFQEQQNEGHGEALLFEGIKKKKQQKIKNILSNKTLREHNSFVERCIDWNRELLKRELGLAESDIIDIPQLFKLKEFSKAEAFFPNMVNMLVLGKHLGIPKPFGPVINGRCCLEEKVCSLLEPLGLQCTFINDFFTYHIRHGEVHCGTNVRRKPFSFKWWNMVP

SMILES | IC50 [nM]
COc1cc(C(=O)N2CC3CCC2[C@@H]3N)cc2nc(-c3cc4ccccc4n3CC3CC3)n(CC3CN(C(=O)Nc4ccccc4)C3)c12 (stereo partly drawn) [Example 472, 3-({5-[(7R)-7-amino-2-azabicyclo[2.2.1]heptane-2-carbonyl]-2-[1-(cyclopropylmethyl)-1H-indol-2-yl]-7-methoxy-1H-1,3-benzodiazol-1-yl}methyl)-N-phenylazetidine-1-carboxamide] | 75
COC(=O)c1cc(C(=O)N2CC(Cn3c(-c4cc5cccnc5n4CC4CC4)nc4cc(C(=O)N5C[C@H]6CC[C@@H]5[C@@H]6N)cc(OC)c43)C2)ccn1 [Example 129, methyl 4-[3-({5-[(1R,4R,7R)-7-amino-2-azabicyclo[2.2.1]heptane-2-carbonyl]-2-[1-(cyclopropylmethyl)-1H-pyrrolo[2,3-b]pyridin-2-yl]-7-methoxy-1H-1,3-benzodiazol-1-yl}methyl)azetidine-1-carbonyl]pyridine-2-carboxylate] | 116
COc1cc(C(=O)N2CC3CCC2[C@@H]3N)cc2nc(-c3cc4cccnc4n3CC3CC3)n(C3CN(S(=O)(=O)C4CC4)C3)c12 (stereo partly shown) [Example 328] | 125
COc1cc(C(=O)N2C[C@H]3CC[C@@H]2[C@@H]3N)cc2nc(-c3cc4ccccc4n3CC3CC3)n(CCN3CCNC3=O)c12 [Example 279, 1-(2-{5-[(1R,4R,7R)-7-amino-2-azabicyclo[2.2.1]heptane-2-carbonyl]-2-[1-(cyclopropylmethyl)-1H-indol-2-yl]-7-methoxy-benzodiazol-1-yl}ethyl)imidazolidin-2-one] | 491
COc1cc(C(=O)N2C[C@H]3CC[C@@H]2[C@@H]3N)cc2nc(-c3cc4cccnc4n3CC3CC3)n(C3CCN(C(=O)c4ccnc(F)c4)CC3)c12 [Example 241, (1R,4R,7R)-2-{2-[1-(cyclopropylmethyl)-1H-pyrrolo[2,3-b]pyridin-2-yl]-1-[1-(2-fluoropyridine-4-carbonyl)piperidin-4-yl]-7-methoxy-1H-1,3-benzodiazole-5-carbonyl}-2-azabicyclo[2.2.1]heptan-7-amine] | 2540
COc1cc(C(=O)N2CC3CCC2[C@@H]3N)cc2nc(-c3cc4ccccc4n3CC3CC3)n(CC3CCS(=O)(=O)C3)c12 (stereo partly drawn) [Example 290, ((7R)-7-amino-2-azabicyclo[2.2.1]heptan-2-yl)(2-(1-(cyclopropylmethyl)-1H-indol-2-yl)-1-((1,1-dioxidotetrahydrothiophen-3-yl)methyl)-7-methoxy-1H-benzo[d]imidazol-5-yl)methanone] | 1590
COc1cc(C(=O)N2C[C@H]3CC[C@@H]2[C@@H]3N)cc2nc(-c3cc4cccnc4n3CC3CC3)n(C3CN(c4ccnc(C)n4)C3)c12 [Example 77, (1R,4R,7R)-2-{2-[1-(cyclopropylmethyl)-1H-pyrrolo[2,3-b]pyridin-2-yl]-7-methoxy-1-[1-(2-methylpyrimidin-4-yl)azetidin-3-yl]-1H-1,3-benzodiazole-5-carbonyl}-2-azabicyclo[2.2.1]heptan-7-amine] | 307
COc1cc(C(=O)N2C[C@H]3CC[C@@H]2[C@@H]3N)cc2nc(-c3cc4cccnc4n3CC3CC3)n(CC3CN(c4cncc(C#N)c4)C3)c12 [Example 7, 5-[3-({5-[(1R,4R,7R)-7-amino-2-azabicyclo[2.2.1]heptane-2-carbonyl]-2-[1-(cyclopropylmethyl)-1H-pyrrolo[2,3-b]pyridin-2-yl]-7-methoxy-1H-1,3-benzodiazol-1-yl}methyl)azetidin-1-yl]pyridine-3-carbonitrile] | 94
COc1cc(C(=O)N2C[C@H]3CC[C@@H]2[C@@H]3N)cc2nc(-c3cc4cccnc4n3CC3CC3)n(CC3CN(c4cncs4)C3)c12 [Example 84, (1R,4R,7R)-2-{2-[1-(cyclopropylmethyl)-1H-pyrrolo[2,3-b]pyridin-2-yl]-7-methoxy-1-{[1-(1,3-thiazol-5-yl)azetidin-3-yl]methyl}-1H-1,3-benzodiazole-5-carbonyl}-2-azabicyclo[2.2.1]heptan-7-amine] | 511
COc1cc(C(=O)N2C[C@H]3CC[C@@H]2[C@@H]3N)cc2nc(-c3cc4cccnc4n3CC3CC3)n(C3CN(C(=O)c4ccnc(O)c4)C3)c12 [Example 190, 4-(3-{5-[(1R,4R,7R)-7-amino-2-azabicyclo[2.2.1]heptane-2-carbonyl]-2-[1-(cyclopropylmethyl)-1H-pyrrolo[2,3-b]pyridin-2-yl]-7-methoxy-1H-1,3-benzodiazol-1-yl}azetidine-1-carbonyl)pyridin-2-ol] | 782

The next compounds have a lower IC50 than those just listed; values first:

IC50 [nM] | SMILES
59 | COc1cc(C(=O)N2CC3CCC2[C@@H]3N)cc2nc(-c3cc4cccnc4n3CC3CC3)n(CC3CN(C(=O)c4cccc(Cl)c4)C3)c12 (stereo partly drawn) [Example 456, (7R)-2-(1-{[1-(3-chlorobenzoyl)azetidin-3-yl]methyl}-2-[1-(cyclopropylmethyl)-1H-pyrrolo[2,3-b]pyridin-2-yl]-7-methoxy-1H-1,3-benzodiazole-5-carbonyl)-2-azabicyclo[2.2.1]heptan-7-amine]
19 | COc1cc(C(=O)N2C[C@H]3CC[C@@H]2[C@@H]3N)cc2nc(-c3cc4ccccc4n3CC3CC3)n(CC3CN(C(=O)c4cccn4C)C3)c12 [Example 148, (1R,4R,7R)-2-{2-[1-(cyclopropylmethyl)-1H-indol-2-yl]-7-methoxy-1-{[1-(1-methyl-1H-pyrrole-2-carbonyl)azetidin-3-yl]methyl}-1H-1,3-benzodiazole-5-carbonyl}-2-azabicyclo[2.2.1]heptan-7-amine]
35 | COc1cc(C(=O)N2CC3CCC2[C@@H]3N)cc2nc(-c3cc4cccnc4n3CC3CC3)n(CC3(F)CN(C(=O)c4ccccc4)C3)c12 (stereo partly drawn) [Example 438, (7R)-2-{1-[(1-benzoyl-3-fluoroazetidin-3-yl)methyl]-2-[1-(cyclopropymethyl)-1H-pyrrolo[2,3-b]pyridin-2-yl]-7-methoxy-1H-1,3-benzodiazole-5-carbonyl}-2-azabicyclo[2.2.1]heptan-7-amine]
31 | COc1cc(C(=O)N2C[C@H]3CC[C@@H]2[C@@H]3N)cc2nc(-c3cc4cccnc4n3CC3CC3)n(CC3CN(c4ccnc(C5CC5)n4)C3)c12 [Example 105, (1R,4R,7R)-2-{2-[1-(cyclopropylmethyl)-1H-pyrrolo[2,3-b]pyridin-2-yl]-1-{[1-(2-cyclopropylpyrimidin-4-yl)azetidin-3-yl]methyl}-7-methoxy-1H-1,3-benzodiazole-5-carbonyl}-2-azabicyclo[2.2.1]heptan-7-amine]
37 | COc1cc(C(=O)N2CC3CCC2[C@@H]3N)cc2nc(-c3cc4ccccc4n3CC3CC3)n(Cc3cnn(-c4cc(F)cnc4O)c3)c12 (stereo partly drawn) [Example 376, 3-[4-({5-[(7R)-7-amino-2-azabicyclo[2.2.1]heptane-2-carbonyl]-2-[1-(cyclopropylmethyl)-1H-indol-2-yl]-7-methoxy-1H-1,3-benzodiazol-1-yl}methyl)-1H-pyrazol-1-yl]-5-fluoropyridin-2-ol]
47 | COc1cc(C(=O)N2CC3CCC2[C@@H]3N)cc2nc(-c3cc4cccnc4n3CC3CC3)n(Cc3cn[nH]n3)c12 (stereo partly drawn) [Example 485, (7R)-2-{2-[1-(cyclopropylmethyl)-1H-pyrrolo[2,3-b]pyridin-2-yl]-7-methoxy-1-[(2H-1,2,3-triazol-4-yl)methyl]-1H-1,3-benzodiazole-5-carbonyl}-2-azabicyclo[2.2.1]heptan-7-amine]
50 | COc1cc(C(=O)N2C[C@H]3CC[C@@H]2[C@@H]3N)cc2nc(-c3cc4ccccc4n3CC3CC3)n(CC3CN(C(=O)c4nn[nH]n4)C3)c12 [Example 173, (1R,4R,7R)-2-{2-[1-(cyclopropylmethyl)-1H-indol-2-yl]-7-methoxy-1-{[1-(2H-1,2,3,4-tetrazole-5-carbonyl)azetidin-3-yl]methyl}-1H-1,3-benzodiazole-5-carbonyl}-2-azabicyclo[2.2.1]heptan-7-amine]
45 | COc1cc(C(=O)N2CC3CCC2[C@@H]3N)cc2nc(-c3cc4cccnc4n3CC3CC3)n(Cc3cnn(CC#N)c3)c12 (stereo partly drawn) [Example 390, 2-[4-({5-[(7R)-7-amino-2-azabicyclo[2.2.1]heptane-2-carbonyl]-2-[1-(cyclopropylmethyl)-1H-pyrrolo[2,3-b]pyridin-2-yl]-7-methoxy-1H-1,3-benzodiazol-1-yl}methyl)-1H-pyrazol-1-yl]acetonitrile]
45 | COc1cc(C(=O)N2CC3CCC2[C@@H]3N)cc2nc(-c3cc4cccnc4n3CC3CC3)n(Cc3cnn(C)c3C)c12 (stereo partly drawn) [Example 486, (7R)-2-{2-[1-(cyclopropylmethyl)-1H-pyrrolo[2,3-b]pyridin-2-yl]-l-[(1,5-dimethyl-1H-pyrazol-4-yl)methyl]-7-methoxy-1H-1,3-benzodiazole-5-carbonyl}-2-azabicyclo[2.2.1]heptan-7-amine]
21 | COc1cc(C(=O)N2C[C@H]3CC[C@@H]2[C@@H]3N)cc2nc(-c3cc4cccnc4n3CC3CC3)n(C[C@H]3CCN(c4nccnc4C#N)C3)c12 [Example 202, 3-[(3S)-3-({5-[(1R,4R,7R)-7-amino-2-azabicyclo[2.2.1]heptane-2-carbonyl]-2-[1-(cyclopropylmethyl)-1H-pyrrolo[2,3-b]pyridin-2-yl]-7-methoxy-1H-1,3-benzodiazol-1-yl}methyl)pyrrolidin-1-yl]pyrazine-2-carbonitrile]
27 | COc1cc(C(=O)N2C[C@H]3CC[C@@H]2[C@@H]3N)cc2nc(-c3cc4ccccc4n3CC3CC3)n(Cc3cn[nH]c3)c12 [Example 247, (1-((1H-pyrazol-4-yl)methyl)-2-(1-(cyclopropylmethyl)-1H-indol-2-yl)-7-methoxy-1H-benzo[d]imidazol-5-yl)((1R,4R,7R)-7-amino-2-azabicyclo[2.2.1]heptan-2-yl)methanone]
14 | COc1cc(C(=O)N2C[C@H]3CC[C@@H]2[C@@H]3N)cc2nc(-c3cc4ccccc4n3CC3CC3)n(CC3CN(C(=O)c4nnn(C)n4)C3)c12 [Example 142, (1R,4R,7R)-2-{2-[1-(cyclopropylmethyl)-1H-indol-2-yl]-7-methoxy-1-{[1-(2-methyl-2H-1,2,3,4-tetrazole-5-carbonyl)azetidin-3-yl]methyl}-1H-1,3-benzodiazole-5-carbonyl}-2-azabicyclo[2.2.1]heptan-7-amine]
